Results: patent US20060035862A1, “Tolerance of 4-(4-(2-pyrrolycarbonyl)-1-piperazinyl)-3-trifluoromethyl-benzoylguanidine in intravenous administration” (Boehringer Ingelheim Pharma KG, priority 2001, published 2006)
Counter-ions that a name gives are not always drawn.

Columns and labels:
[1] = local tolerance after intravenous administration; type: in vivo
Procedure: When they are administered parenterally some local intolerances occasionally arise.

[2] = local tolerance in dogs (bolus and infusion); type: in vivo
Procedure: In the second step the appropriate ratio of HPβCD to active substance was determined from the local tolerance in dogs.

[3] = local tolerance study on rabbits (bolus and 8 minutes infusion); type: in vivo
[4] = stability of the active substance (hydrolysis); type: physicochemical; conditions: only anhydrous formulations are stable
Description: Therefore, lyophilisates have been developed, which have to be reconstituted before use.

[5] = local tolerance trial on rats (30 minutes' infusion into the caudal vein); type: in vivo
citrated human blood = test: in vitro haemolysis test (solution mixed 1:1 with citrated human blood, 37° C.); type: cell-based
Description: In the following description the term “active substance”, on its own or in combination, always denotes 4-(4-(2-pyrrolylcarbonyl)-1-piperazinyl)-3-trifluoromethyl-benzoylguanidine hydrochloride, unless otherwise stated. Both a monohydrate and a hemihydrate of 4-(4-(2-pyrrolylcarbonyl)-1-piperazinyl)-3-trifluoromethyl-benzoylguanidine hydrochloride may be obtained. For all the experiments the hemihydrate was used. The quantitative data used hereinafter always relate to the free base; i.e. the quantities specified correspond to the theoretical amount of free base, whereas in reality a correspondingly larger amount of hemihydrate was added. In each case glucose was used to render the solution isotonic. The isotonic nature of the solutions was checked in each case by lowering the freezing point. In in-vitro haemolysis tests in each case the solution to be tested was mixed with citrated human blood in the ratio 1:1 and kept at 37° C. during the incubation period. […]

SMILES: N=C(N)NC(=O)c1ccc(N2CCN(C(=O)c3ccc[nH]3)CC2)c(C(F)(F)F)c1 [active substance, 4-(4-(2-pyrrolylcarbonyl)-1-piperazinyl)-3-trifluoromethyl-benzoylguanidine hydrochloride]
- local tolerance [1]: locally poorly tolerated
- local tolerance ([2]; weight ratio HPβCD to active substance 10:1, bolus, active substance concentration 10 mg/ml): suitable
- local tolerance ([2]; weight ratio HPβCD to active substance 10:1, infusion, active substance concentration between 1.5 mg/ml and 3 mg/ml): suitable
- local tolerance ([3]; 1% active substance solutions containing 10% HPβCD): locally well-tolerated
- local tolerance ([3]; 1% active substance solutions with phospholipid and sodium cholate (mixed micelles)): locally well-tolerated
- stability [4]: prone to hydrolysis
- local tolerance ([5]; 0.75 mg/ml, no tolerance measures, 30 minutes' infusion into the caudal vein): poorly tolerated
- local tolerance ([5]; 1.5 mg/ml with 100 mg/ml Poloxamer 188, 30 minutes infusion into the caudal vein, compared with 1.5 mg/ml without excipient): better tolerated
- degree of haemolysis (citrated human blood; 10 mg/ml active substance, 100 mg/ml PVP 17 PF, aqueous isotonic solution, incubation 45 minutes): 17%
- haemolysis observed (citrated human blood; 1% aqueous isotonic active substance solution containing 10% HPβCD, incubation 45 minutes): no haemolysis
- degree of haemolysis (%) (citrated human blood; active substance 0.5 mg/ml, aqueous isotonic solution, no tolerance measures, incubation two hours): 0%
- degree of haemolysis (%) (citrated human blood; active substance 1.0 mg/ml, aqueous isotonic solution, no tolerance measures, incubation two hours): 1%
- degree of haemolysis (%) (citrated human blood; active substance 1.5 mg/ml, aqueous isotonic solution, no tolerance measures, incubation two hours): 4%
- degree of haemolysis (%) (citrated human blood; active substance 1.5 mg/ml, no tolerance measures, incubation 45 minutes): 0%
- degree of haemolysis (%) (citrated human blood; active substance 10 mg/ml, HPβCD 0 mg/ml, incubation 45 minutes): 100%
- degree of haemolysis (%) (citrated human blood; active substance 10 mg/ml, HPβCD 100 mg/ml, incubation 45 minutes): 0%
- degree of haemolysis (%) (citrated human blood; active substance 10 mg/ml, Poloxamer 188 0 mg/ml, incubation 45 minutes): 99%
- degree of haemolysis (%) (citrated human blood; active substance 10 mg/ml, Poloxamer 188 100 mg/ml, incubation 45 minutes): 4%
- degree of haemolysis (%) (citrated human blood; active substance 10 mg/ml, Poloxamer 188 200 mg/ml, incubation 45 minutes): 0%
- degree of haemolysis (%) (citrated human blood; active substance 10.0 mg/ml, no tolerance measures, incubation 45 minutes): 100%
- degree of haemolysis (%) (citrated human blood; active substance 10 mg/ml, phospholipid 60 mg/ml, sodium glycocholate 32 mg/ml): 2%
- degree of haemolysis (%) (citrated human blood; active substance 10 mg/ml, phospholipid 60 mg/ml, sodium glycocholate 36 mg/ml): 7%
- degree of haemolysis (%) (citrated human blood; active substance 10 mg/ml, phospholipid 75 mg/ml, sodium cholate 50 mg/ml, incubation 45 minutes): 7%
- degree of haemolysis (%) (citrated human blood; active substance 10 mg/ml, phospholipid 150 mg/ml, sodium cholate 100 mg/ml, incubation 45 minutes): 0%
- haemolytic activity (citrated human blood; ratio of HPβCD to active substance 6.67:1, active substance concentration 9 mg/ml): not haemolytic
